Test results as given in patent US11464770B2, “Anticancer pharmaceutical composition” (NATIONAL CANCER CENTER, priority 2016, dated 2022).
Where two headings read alike, the source gives them in different places.

What was measured:
renal cancer cell lines = assay: Cell based assay, cell viability (CellTiter-Glo), renal cancer cell lines; conditions: Homo sapiens; ACHN cells
Description: (§1) Commercially available bladder cancer, prostate cancer, lung cancer, breast cancer, blood cancer, pancreatic cancer, colorectal cancer, brain cancer, neuroblastoma, melanoma, liver cancer, cervical carcinoma, ovarian cancer, renal cancer, and papilloma cell lines were each treated with trypsin-EDTA and cultured, followed by being seeded in each well of a 96 well plate. After 24 hours of treatment at constant temperature, the respective cells were treated with the candidate compound so that a final concentration became 0 to 2 μM. The treated cells were additionally cultured for 72 hours, and cell viability was measured by using an ATP detection method (CellTiter-Glo® Luminescent Cell Viability Assay, Promega).

[1] = tested on: lung cancer cell lines (e.g. NCI-H23, NCI-H1229); assay: Cell based assay, cell viability (CellTiter-Glo), lung cancer cell lines; conditions: Homo sapiens
Description: as §1

brain cancer cell lines = assay: Cell based assay, cell viability (CellTiter-Glo), brain cancer cell lines; conditions: Homo sapiens
Description: as §1, with “After 24 hours of treatment at constant temperature, the respective cells were treated with the candidate compound so that a final concentration became 0 to 2 μM.” left out

[2] = A549 cells, 72 hours treatment, CellTiter-Glo, read-out: IC50, lung cancer cell line A549
[3] = DMS 114 cells, 72 hours treatment, CellTiter-Glo, read-out: IC50, lung cancer cell line DMS 114
[4] = MRC-5 cells, 72 hours treatment, CellTiter-Glo, read-out: IC50
[5] = NCI-H23 cells, 72 hours treatment, CellTiter-Glo, read-out: IC50, lung cancer cell line NCI-H23
[6] = NCI-H460 cells, 72 hours treatment, CellTiter-Glo, read-out: IC50, lung cancer cell line NCI-H460
[7] = NCI-H522 cells, 72 hours treatment, CellTiter-Glo, read-out: IC50, lung cancer cell line NCI-H522
[8] = NCI-H1299 cells, 72 hours treatment, CellTiter-Glo, read-out: IC50, lung cancer cell line NCI-H1299
[9] = NCI-H1437 cells, 72 hours treatment, CellTiter-Glo, read-out: IC50, lung cancer cell line NCI-H1437
[10] = U138-MG, U-138 MG cell line, read-out: IC50, Brain cancer cell line U-138 MG
[11] = T98G cell line, read-out: IC50, Brain cancer cell line T98G
[12] = U-251 MG cell line, read-out: IC50, Brain cancer cell line U-251 MG

Row | Compound | IC50 (renal cancer cell lines) | IC50 [1, 2] | IC50 [1, 3] | IC50 [1, 4] | IC50 [1, 5] | IC50 [1, 6] | IC50 [1, 7] | IC50 [1, 8] | IC50 [1, 9] | IC50 (brain cancer cell lines; [10]) | IC50 (brain cancer cell lines; [11]) | IC50 (brain cancer cell lines; [12]) | IC50 ([1]; Lung cancer cell line A549, 72 hours, cell viability (CellTiter-Glo), read-out: IC50, A549) | IC50 ([1]; Lung cancer cell line DMS 114, 72 hours, cell viability (CellTiter-Glo), read-out: IC50, DMS 114) | IC50 ([1]; Lung cancer cell line NCI-H23, 72 hours, cell viability (CellTiter-Glo), read-out: IC50, NCI-H23) | IC50 ([1]; Lung cancer cell line NCI-H460, 72 hours, cell viability (CellTiter-Glo), read-out: IC50, NCI-H460) | IC50 ([1]; Lung cancer cell line NCI-H522, 72 hours, cell viability (CellTiter-Glo), read-out: IC50, NCI-H522) | IC50 ([1]; Lung cancer cell line NCI-H1299, 72 hours, cell viability (CellTiter-Glo), read-out: IC50, NCI-H1299) | IC50 ([1]; Lung cancer cell line NCI-H1437, 72 hours, cell viability (CellTiter-Glo), read-out: IC50, NCI-H1437) | IC50 ([1]; MRC-5 (listed under Lung cancer cell line), 72 hours, cell viability (CellTiter-Glo), read-out: IC50, MRC-5)
1 | CSc1c(C(C)=O)c(=O)c2c(Cl)ccc(Br)c2n1C [Compound 5, 3-acetyl-8-bromo-5-chloro-1-methyl-2-(methylthio)quinolin-4(1H)-one] | > 2 µM | > 2 µM | > 2 µM | > 2 µM | > 2 µM | > 2 µM | > 2 µM | > 2 µM | > 10 µM | > 10 µM | > 10 µM | > 2 µM |  |  |  |  |  |  |  | 
2 | CC(=O)c1c([S+]([O-])Cc2cccc(S(F)(F)(F)(F)F)c2)[nH]c2c(Br)ccc(Cl)c2c1=O (stereo not drawn) [Compound 77, 3-acetyl-8-bromo-5-chloro-2-((3-(pentafluoro--sulfanyl)benzyl)sulfinyl)quinolin-4(1H)-one] | > 2 µM | 1.84 µM | > 2 µM | 1.06 µM | 0.96 µM | 1.51 µM | > 2 µM | 1.32 µM | > 10 µM | 1.55 µM | > 2 µM | 1.29 µM |  |  |  |  |  |  |  | 
3 | CC(=O)c1c([S+](C)[O-])n(C(=O)c2ccc(Br)cc2)c2c(Br)ccc(Cl)c2c1=O (stereo not drawn) [Compound 9, 3-acetyl-8-bromo-1-(4-bromobenzoyl)-5-chloro-2-(methylsulfinyl)quinolin-4(1H)-one] | > 2 µM | > 2 µM | > 2 µM | > 2 µM | 0.9 µM | > 2 µM | > 2 µM | 1.26 µM | > 10 µM | 1.26 µM | > 10 µM | > 2 µM |  |  |  |  |  |  |  | 
4 | CC(=O)c1c([S+](C)[O-])n(C(C)=O)c2c(Br)ccc(Cl)c2c1=O (stereo not drawn) [Compound 19, 1,1′-(8-bromo-5-chloro-2-(methylsulfinyl)-4-oxoquinoline-1,3(4H)-diyl)bis(ethan-1-one)] | > 2 µM | > 2 µM | > 2 µM | > 2 µM | > 2 µM | > 2 µM | > 2 µM | > 2 µM | > 10 µM | > 10 µM | > 10 µM | > 2 µM |  |  |  |  |  |  |  | 
5 | CC(=O)c1c(S(C)(=O)=O)n(S(=O)(=O)c2ccc(C(C)(C)C)cc2)c2c(Br)ccc(Cl)c2c1=O [Compound 41, 3-acetyl-8-bromo-1-((4-(tert-butyl)phenyl)sulfonyl)-5-chloro-2-(methylsulfonyl)quinolin-4(1H)-one] | > 2 µM | > 2 µM | > 2 µM | > 2 µM | > 2 µM | > 2 µM | > 2 µM | > 2 µM | > 10 µM | > 10 µM | > 10 µM | > 2 µM |  |  |  |  |  |  |  | 
6 | CC(=O)c1c([S+]([O-])Cc2ccccc2C#N)[nH]c2c(Br)ccc(Cl)c2c1=O (stereo not drawn) [Compound 58, 2-(((3-acetyl-8-bromo-5-chloro-4-oxo-1,4-dihydroquinolin-2-yl)sulfinyl)methyl)benzonitrile] | > 2 µM | > 2 µM | > 2 µM | 0.76 µM | 0.8 µM | > 2 µM | 1.94 µM | 1.15 µM | > 10 µM | 1.46 µM | > 10 µM | 0.84 µM |  |  |  |  |  |  |  | 
7 | COc1cccc2[nH]c([S+]([O-])Cc3cc(C)on3)c(C(C)=O)c(=O)c12 (stereo not drawn) [Compound 94, 3-acetyl-5-methoxy-2-(((5-methylisoxazol-3-yl)methyl)sulfinyl)quinolin-4(1H)-one] | > 2 µM | > 2 µM | > 2 µM | > 2 µM | 2.07 µM | > 2 µM | > 2 µM | > 2 µM | > 10 µM | > 2 µM | > 10 µM | > 2 µM |  |  |  |  |  |  |  | 
8 | COc1ccccc1Sc1[nH]c2c(Br)ccc(Cl)c2c(=O)c1C(C)=O [Compound 14, 3-acetyl-8-bromo-5-chloro-2-((2-methoxyphenyl)thio)quinolin-4(1H)-one] | > 2 µM | > 2 µM | > 2 µM | > 2 µM | > 2 µM | > 2 µM | > 2 µM | > 2 µM | > 10 µM | > 10 µM | > 10 µM | > 2 µM |  |  |  |  |  |  |  | 
9 | CC(=O)c1c(SCc2cccc(I)c2)[nH]c2c(Br)ccc(Cl)c2c1=O [Compound 47, 3-acetyl-8-bromo-5-chloro-2-((3-iodobenzyl)thio)quinolin-4(1H)-one] | > 2 µM | > 2 µM | > 2 µM | > 2 µM | > 2 µM | > 2 µM | > 2 µM | > 2 µM | > 10 µM | > 10 µM | > 10 µM | > 2 µM |  |  |  |  |  |  |  | 
10 | CC(=O)c1c([S+]([O-])Cc2ccc(SC(F)(F)F)cc2)[nH]c2c(Cl)ccc(Cl)c2c1=O (stereo not drawn) [Compound 79, 3-acetyl-5,8-dichloro-2-((4-((trifluoromethyl)thio)benzyl)sulfinyl)quinolin-4(1H)-one] | > 2 µM | > 2 µM | > 2 µM | > 2 µM | > 2 µM | > 2 µM | > 2 µM | > 2 µM | > 10 µM | > 10 µM | > 10 µM | > 2 µM |  |  |  |  |  |  |  | 
11 | CC(=O)c1c([S+](C)[O-])[nH]c2c(Br)ccc(Cl)c2c1=O (stereo not drawn) [Compound 1, 3-acetyl-8-bromo-5-chloro-2-(methylsulfinyl)quinolin-4(1H)-one] | > 2 µM | > 2 µM | > 2 µM | 1.34 µM | 1.34 µM | > 2 µM | > 2 µM | 1.88 µM | > 10 µM | > 2 µM | > 10 µM | > 2 µM |  |  |  |  |  |  |  | 
12 | CC(=O)c1c(S(C)(=O)=O)n(C(=O)c2ccc(Br)cc2)c2c(Br)ccc(Cl)c2c1=O [Compound 21, 3-acetyl-8-bromo-1-(4-bromobenzoyl)-5-chloro-2-(methylsulfonyl)quinolin-4(1H)-one] | > 2 µM | > 2 µM | > 2 µM | > 2 µM | > 2 µM | > 2 µM | > 2 µM | > 2 µM | > 10 µM | > 10 µM | > 10 µM | > 2 µM |  |  |  |  |  |  |  | 
13 | CC(=O)c1c([S+]([O-])Cc2ccc(N)nc2)[nH]c2c(Br)ccc(Cl)c2c1=O (stereo not drawn) [Compound 100, 3-acetyl-2-(((6-aminopyridin-3-yl)methyl)sulfinyl)-8-bromo-5-chloroquinolin-4(1H)-one] | > 2 µM |  |  |  |  |  |  |  |  | > 10 µM | > 10 µM | > 2 µM | > 2 µM | > 2 µM | > 2 µM | > 2 µM | > 2 µM | > 2 µM | > 10 µM | > 2 µM
14 | CC(=O)c1c([S+]([O-])Cc2ccc(C(F)(F)F)o2)[nH]c2c(F)ccc(F)c2c1=O (stereo not drawn) [Compound 81, 3-acetyl-5,8-difluoro-2-(((5-(trifluoromethyl)furan-2-yl)methyl)sulfinyl)quinolin-4(1H)-one] | > 2 µM | > 2 µM | > 2 µM | > 2 µM | > 2 µM | > 2 µM | > 2 µM | > 2 µM | > 10 µM | > 2 µM | > 10 µM | > 2 µM |  |  |  |  |  |  |  | 
15 | CC(=O)c1c([S+]([O-])Cc2ccccc2)nc2c(Br)ccc(Cl)c2c1O (stereo not drawn) [Compound 53, 1-(2-(benzylsulfinyl)-8-bromo-5-chloro-4-hydroxyquinolin-3-yl)ethan-1-one] | > 2 µM | > 2 µM | > 2 µM | > 2 µM | > 2 µM | > 2 µM | > 2 µM | > 2 µM | > 10 µM | > 10 µM | > 10 µM | > 2 µM |  |  |  |  |  |  |  | 
16 | CC(=O)c1c([S+]([O-])c2ccc(Br)cc2)[nH]c2c(Br)ccc(Cl)c2c1=O (stereo not drawn) [Compound 17, 3-acetyl-8-bromo-2-((4-bromophenyl)sulfinyl)-5-chloroquinolin-4(1H)-one] | > 2 µM | > 2 µM | > 2 µM | > 2 µM | > 2 µM | > 2 µM | > 2 µM | > 2 µM | > 10 µM | > 10 µM | > 10 µM | > 2 µM |  |  |  |  |  |  |  | 
17 | CC(=O)c1c([S+]([O-])Cc2ccc(S(F)(F)(F)(F)F)cc2F)[nH]c2c(Br)ccc(Cl)c2c1=O (stereo not drawn) [Compound 69, 3-acetyl-8-bromo-5-chloro-2-((2-fluoro-4-(pentafluoro-16-sulfanyl)benzyl)sulfinyl)quinolin-4(1H)-one] | > 2 µM | 1.78 µM | > 2 µM | 1.05 µM | 1.13 µM | 1.62 µM | > 2 µM | 1.31 µM | > 10 µM | 1.54 µM | > 10 µM | 1.16 µM |  |  |  |  |  |  |  | 
